Reference: patent EP2118065B1, “Substituted 1H-benz[de]isoquinoline-1,3-diones” (priority 2007, dated 2008)

How the values were obtained:
SK-N-SH = assay: SRB in vitro cytotoxicity, human tumor cell line; type: cell-based; conditions: 10^-5 M, Neuroblastoma: SK-N-SH, read-out: growth inhibition
Experimental: (§1) Compounds 3a-g were screened by sulforhodamine-B (SRB) semi-automated assay in a battery of cell lines. […] A., et. al. (1991); Feasibility high flux anticancer screen utilizing diverse panel of human tumor cell lines in culture. J Natl Cancer Inst. 83, 757-766]. Each compound was tested in triplicate sets of experiments at 10^-4 to 10^-6 M concentrations (Table 4).
(§2) A stock solution of 2 x 10^-2M was prepared in DMSO. The stock solutions were serially diluted to obtain working test solutions with complete growth medium (RPMI-1640 medium with 2mM glutamine, 100µg/ml streptomycin, pH 7.4, sterilized by filtration and supplemented with 10% fetal bovine serum and 100 units/ml penicillin before use) containing 50 µg/ml of gentamycin to obtain working test solutions. The working test solutions were not filtered/ sterilized but microbial contamination was controlled by addition of gentamycin in complete growth medium used for dilution of stock solutions to prepare working test solutions.
(§3) In vitro cytotoxicity against human cancer cell lines was determined^2 [Monk. A., et. al. (1991); Feasibility high flux anticancer screen utilizing diverse panel of human tumor cell lines in culture. J Natl Cancer Inst. 83, 757-766] using 96-well tissue culture plates. The cells were grown in tissue culture flasks in complete growth medium at 37°C in an atmosphere of 5% CO2 and 95% relative humidity in a carbon dioxide incubator. The cell suspension of required cell density (1-2 lakhs/ml) depending on the mass doubling time of cell lines was prepared in complete growth medium for determination of cytotoxicity. The aliquots of 100 µl of cell suspension were added to each well on a 96-well tissue culture plate. The blank wells contained complete medium in place of cell suspension. Simultaneously, control experiments with positive controls containing known anticancer agents were carried out. Cells were incubated for 24 hr.
(§4) The test materials (100 µl in each well) were added after 24-hours to the wells containing cell suspension and blank wells. The cells were allowed to grow in presence of test material by further incubating the plates for 48 hours. At the end of incubation period the cell growth was stopped by gently layering trichloroacetic acid (50% TCA, 50µl/well) on top of the medium in all the wells. The plates were incubated at 4°C for 1 hr. The plates were washed five times with distilled water to remove TCA, growth medium, low molecular weight metabolites, serum proteins etc. and air-dried.
(§5) The cell growth was measured^3 [Skehan, P, Storeng, R Scudiero, D, Monks, A, Mcmahon, J, Vistica, D, Warren, J.T., Bokesch, H., Kenney, S., Boyd, M.R. (1990). New colorimetric cytotoxicity assay for anti-cancer drug screening. J Natl Cancer Inst. 82: 1107-12] by staining with Sulphorhodamine B. Sulphorhodamine B (SRB, 0.4% in 1% acetic acid, 100 µl/well) was added to each well and plates were allowed to stand at room temperature for 30 minutes. The plates were washed with 1% acetic acid four times and then dried. Tris-HCl buffer (0.01 M, pH 10.5, 100 µl/well) was added to each well to solublise the dye. The plates were shaken gently for 10 minutes on a shaker and the optical density was recorded on ELISA reader at 540 nm. The cell growth was determined by subtracting mean OD value of respective blank from the mean OD value of experimental set. Percent growth in presence of test material was calculated considering the growth in absence of any test material as 100% and in turn percent growth inhibition in presence of test material was calculated. All the experiments were carried out in quadruplicate.

MCF-7 = assay: SRB in vitro cytotoxicity, human tumor cell line; type: cell-based; conditions: MCF7, 10^-5 M, Breast: MCF-7, read-out: growth inhibition
Experimental: as §1, §2, §3, §4, §5

SW-620 = assay: SRB in vitro cytotoxicity, human tumor cell line; type: cell-based; conditions: 10^-5 M, Colon: SW-620, read-out: growth inhibition
Experimental: as §1, §2, §3, §4, §5

PC-3 = assay: SRB in vitro cytotoxicity, human tumor cell line; type: cell-based; conditions: 10^-5 M, Prostate: PC-3, read-out: growth inhibition
Experimental: as §1, §2, §3, §4, §5

502713 = assay: SRB in vitro cytotoxicity, human tumor cell line; type: cell-based; conditions: 10^-5 M, Colon: 502713, read-out: growth inhibition
Experimental: as §1, §2, §3, §4, §5

A549 = assay: SRB in vitro cytotoxicity, human tumor cell line; type: cell-based; conditions: 10^-5 M, Lung: A549, read-out: growth inhibition
Experimental: as §1, §2, §3, §4, §5

HT-29 = assay: SRB in vitro cytotoxicity, human tumor cell line; type: cell-based; conditions: 10^-5 M, Colon: HT-29, read-out: growth inhibition
Experimental: as §1, §2, §3, §4, §5

IMR-32 = assay: SRB in vitro cytotoxicity, human tumor cell line; type: cell-based; conditions: 10^-5 M, Neuroblastoma: IMR-32, read-out: growth inhibition
Experimental: as §1, §2, §3, §4, §5

COLO-205 = assay: SRB in vitro cytotoxicity, human tumor cell line; type: cell-based; conditions: 10^-5 M, Colon: COLO-205, read-out: growth inhibition
Experimental: as §1, §2, §3, §4, §5

DU-145 = assay: SRB in vitro cytotoxicity, human tumor cell line; type: cell-based; conditions: 10^-5 M, Prostate: DU-145, read-out: growth inhibition
Experimental: as §1, §2, §3, §4, §5

HCT-15 = assay: SRB in vitro cytotoxicity, human tumor cell line; type: cell-based; conditions: 10^-5 M, Colon: HCT-15, read-out: growth inhibition
Experimental: as §1, §2, §3, §4, §5

Hep-2 = assay: SRB in vitro cytotoxicity, human tumor cell line; type: cell-based; conditions: 10^-5 M, Liver: Hep-2, read-out: growth inhibition
Experimental: as §1, §2, §3, §4, §5

OVCAR-5 = assay: SRB in vitro cytotoxicity, human tumor cell line; type: cell-based; conditions: 10^-5 M, Ovary: OVCAR-5, read-out: growth inhibition
Experimental: as §1, §2, §3, §4, §5

SKOV-3 = assay: SRB in vitro cytotoxicity, human tumor cell line; type: cell-based; conditions: SK-OV-3, 10^-5 M, Ovarian: SKOV-3, read-out: growth inhibition
Experimental: as §1, §2, §3, §4, §5

S-180 = assay: In vivo tumor growth inhibition study; design: species or system mice
From the text: Compound 3f was selected for tumor growth inhibition study. 18 mice each were taken for treated and control groups and inoculated with 1 x 10^6 S-180 cells. After sacrificing mice from the respective groups sequentially on days 9, 14 and 19 following drug treatment on day 1-7 at doses indicated, the ascites fluid from peritoneal cavities of animals were quantitatively transferred and the peritoneal cavities were washed with measured volume of physiological saline. The total number of tumor cells were counted and ascites fluid volume were measured. Averages ( x ± S.E.M.) were made of these two parameters and the percentage inhibitions [(1 - T/C) ×100] were calculated for each dose.

S-180 cells = assay: 3H-thymidine and 3H-uridine incorporation in vitro (DNA and RNA synthesis)

Q: What does the source list for `O=C1c2cccc3c([N+](=O)[O-])ccc(c23)C(=O)N1CCCCl` [Compound 3f, 6-Nitro-2-[3-(Chloropropyl)]-1H-benz[de]isoquinoline-1,3-dione]?
A: inhibition at 10 µM (SK-N-SH): > 50%; inhibition at 10 µM (MCF-7): > 50%; inhibition at 10 µM (SW-620): > 50%; inhibition at 10 µM (PC-3): > 50%; inhibition at 10 µM 502713: > 50%; inhibition at 10 µM (A549): ≤ 50%; inhibition at 10 µM (HT-29): > 50%; inhibition at 10 µM (IMR-32): > 50%; inhibition at 10 µM (COLO-205): > 50%; inhibition at 10 µM (DU-145): > 50%; inhibition at 10 µM (HCT-15): > 50%; inhibition at 10 µM (Hep-2): > 50%; inhibition at 10 µM (OVCAR-5): > 50%; inhibition at 10 µM (SKOV-3): ≤ 50%; inhibition in S-180 tumor growth (S-180; 19th day, after drug treatment on day 1-7): about 20%; inhibition in S-180 tumor growth (S-180; day 9, after drug treatment on day 1-7): 84%; inhibition at 8 µM (S-180 cells; Mus musculus, S-180, read-out: DNA synthesis inhibition (3H-thymidine uptake)): 90%; RNA synthesis inhibition (3H-uridine uptake) (S-180 cells; S-180 cells, 8 µM, 1 hr incubation, with respect to control): 80%
